These results are taken from patent US20250099420A1, “SMALL MOLECULE MODULATORS OF GPR139 COMPLEX” (University of Florida Research Foundation, Incorporated, priority 2022, published 2025).

Molecules are shown by their SMILES. Where two headings read alike, the source gives them in different places. A value given as a limit tells only on which side of the number the result lay.

Series [1] has as its system parental HEK cells. In words: HEK parental Agonist Counterscreen Assay (non-transfected cells). Particulars: for Averaged Max % Response (±St. Dev.): activity relative to known control. Format: cell-based. The text has this: The high control for the agonist counterscreen was Forskolin not acetylcholine.
(In general: A counterscreen serves to expose hits that act by an unwanted route or on another target.)

For series [2], the target named is T1, GPR139 (Homo sapiens, UniProt Q6DWJ6).
T1 sequence (Q6DWJ6 1-353): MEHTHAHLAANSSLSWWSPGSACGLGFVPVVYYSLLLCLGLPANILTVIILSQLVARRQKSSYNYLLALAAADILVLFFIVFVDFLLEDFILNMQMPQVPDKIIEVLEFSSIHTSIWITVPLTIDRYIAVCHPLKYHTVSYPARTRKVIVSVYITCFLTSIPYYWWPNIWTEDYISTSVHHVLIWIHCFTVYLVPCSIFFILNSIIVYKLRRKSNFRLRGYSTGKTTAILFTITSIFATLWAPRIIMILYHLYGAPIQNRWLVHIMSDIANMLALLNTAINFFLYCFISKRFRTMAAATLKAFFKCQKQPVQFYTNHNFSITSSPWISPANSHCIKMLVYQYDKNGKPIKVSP
Put plainly: GPR139 Agonist titration / agonist counterscreen assay (calcium detection, HEK-GPR139 cells). Also on record: expressed in transfected cells; host or cells: HEK Aequorin cells, Maxcyte transient transfection. Particulars: GPR139 Agonist Activity; for EC50: read-out: EC50; for Averaged Max % Response (±St. Dev.): activity relative to known control. Format: cell-based. On the procedure: GPR activity was assessed using a calcium detection assay. […] Negative control samples were treated with DMSO. […] Intracellular calcium was measured using Calcium 5.

The mark [3] stands for this setting: HEK Agonist Activity section of Table 4 (parental HEK counterscreen).
The mark [4] stands for this setting: Homo sapiens, HEK293, HEK Agonist Activity section of Table 4 (parental HEK counterscreen).
[5] abbreviates: Homo sapiens, HEK293, HEK Agonist Activity, parental non-transfected HEK cells.
Setting [6] is: values printed in E-notation without unit.

With `COc1ccc2c(c1)C[C@H](C(=O)Nc1ccc(-c3cn[nH]c3)cc1OCC1CNC1)NC2.O=C(O)C(F)(F)F.O=C(O)C(F)(F)F.O=C(O)C(F)(F)F` [SR-00000006698], in series [1] (HEK Agonist Activity section), the “Lipophilic Efficiency (logD)” value is 6.10, the “Lipophilic Efficiency (logP)” value is listed as 3.11 and the “Averaged Max % Response (±St. Dev.)” value turned out to be 5.81 ± 4.77%. For the same compound, the EC50 (commonly the midpoint of the concentration-response curve) in series [1] (setting [3]) was > 14.1 µM. For the same compound, in series [2], the “Efficiency Ligand” value came to 0.29, the “Hill Slope” value is recorded as 1.33, the “Lipophilic Efficiency (logD)” value worked out at 7.81 and the “Lipophilic Efficiency (logP)” value was 4.82. Moreover, the “Averaged Max % Response (±St. Dev.)” value in series [2] stood at 88.34 ± 12.18%. Further, the concentration for a half-maximal effect (EC50) in series [2] (HEK-GPR139 cells) stood at 0.274 µM.
As to `C=C(Nc1ccc(-c2cn[nH]c2)cc1)N(C)Cc1cccc(C(=O)CC)c1` [SR-00000007008], the “Lipophilic Efficiency (logD)” value is 1.85 in series [1] (HEK Agonist Activity section) and 3.98 in series [2] (based on logD). Further, the “Lipophilic Efficiency (logP)” value was found to be 1.85 in series [1] (HEK Agonist Activity section) and 3.98 in series [2] (based on logP). In addition, the “Averaged Max % Response (±St. Dev.)” value is −8.12 ± 2.24% in series [1] (HEK Agonist Activity section) and 75.98 ± 6.44% in series [2]. Also, in series [1] (setting [4]), the EC50 is > 14.1 µM. The “Hill Slope” value in series [2] (fitted dose-response curve) worked out at 0.79. In series [2] (ligand efficiency), the “Efficiency Ligand” value is 0.36.
As to `COc1ccc2c(c1)C[C@H](C(=O)Nc1ccc(-c3cn[nH]c3)cc1OCCN1CCCC1)NC2.O=C(O)C(F)(F)F.O=C(O)C(F)(F)F.O=C(O)C(F)(F)F` [SR-00000007044], in series [1] (HEK Agonist Activity section), the “Lipophilic Efficiency (logD)” value is given as 3.98, the “Lipophilic Efficiency (logP)” value was found to be 2.09 and the “Averaged Max % Response (±St. Dev.)” value is 26.95 ± 5.80%. Besides, the EC50 in series [1] (setting [3]) is > 14.1 µM. For the same compound, in series [2], the “Efficiency Ligand” value came to 0.24, the “Hill Slope” value is given as 1.19, the “Lipophilic Efficiency (logD)” value was determined as 5.00 and the “Lipophilic Efficiency (logP)” value was 3.11. Also, the “Averaged Max % Response (±St. Dev.)” value in series [2] was 81.04 ± 10.01%. In series [2] (HEK-GPR139 cells), the EC50 worked out at 1.4 µM.
For the compound `CCC1Cc2ccc(C)cc2CC1C(=O)Nc1ccc(-c2cn[nH]c2)cc1OCCN(C)C` (stereo not shown) [SR-00000007138], the “Lipophilic Efficiency (logD)” value in series [1] (HEK Agonist Activity) amounted to 3.12; in series [2] (based on logD), 5.84. Besides, the “Lipophilic Efficiency (logP)” value in series [1] (HEK Agonist Activity) is 1.76; in series [2] (based on logP), 4.48. In addition, the entries for the “Averaged Max % Response (±St. Dev.)” value in series [1] (HEK Agonist Activity) and in series [2] were 10.53 ± 4.93% and 109.71 ± 13.62%, respectively. The EC50 in series [1] (setting [5]) was > 14.1 µM; in series [2] (setting [6]), 0.0271 µM. In series [2] (fitted dose-response curve), the “Hill Slope” value is recorded as 0.17. For the same compound, the “Efficiency Ligand” value in series [2] (ligand efficiency) is reported as 0.31.
`COc1cccc(CNC(=O)Nc2ccc(-c3ccncc3)cc2)c1.O=C(O)C(F)(F)F` [SR-00000007266]: in series [1] (HEK Agonist Activity section), the “Lipophilic Efficiency (logD)” value amounted to 1.76, the “Lipophilic Efficiency (logP)” value is on record as 1.75 and the “Averaged Max % Response (±St. Dev.)” value is recorded as 23.72 ± 3.44%. Moreover, the 50% effective concentration (EC50) in series [1] (setting [3]) is > 14.1 µM. In series [2], the “Efficiency Ligand” value is recorded as 0.36, the “Hill Slope” value is 1.16, the “Lipophilic Efficiency (logD)” value is given as 3.29 and the “Lipophilic Efficiency (logP)” value worked out at 3.29. Besides, in series [2], the “Averaged Max % Response (±St. Dev.)” value is recorded as 100.59 ± 15.12%. Also, the EC50 in series [2] (HEK-GPR139 cells) amounted to 0.409 µM.
In the case of `Cc1cccc(CCNC(=O)c2c[nH]c3cc(-c4cn[nH]c4)ccc23)c1` [SR-00000007279], the entries for the “Lipophilic Efficiency (logD)” value in series [1] (HEK Agonist Activity) and in series [2] (based on logD) were 2.30 and 4.81, respectively. Further, the results for the “Lipophilic Efficiency (logP)” value in series [1] (HEK Agonist Activity) and in series [2] (based on logP) were 2.29 and 4.80, respectively. Besides, the results for the “Averaged Max % Response (±St. Dev.)” value in series [1] (HEK Agonist Activity) and in series [2] were 17.20 ± 7.85% and 142.11 ± 3.85%, respectively. Also, the EC50 in series [1] (setting [5]) was > 14.1 µM; in series [2] (setting [6]), 0.0431 µM. Moreover, the “Hill Slope” value in series [2] (fitted dose-response curve) is 0.18. For the same compound, the “Efficiency Ligand” value in series [2] (ligand efficiency) turned out to be 0.38.
Consider `CN1CC[C@H](Oc2cc(-c3cn[nH]c3)ccc2NC(=O)N(Cc2ccccc2)C2CC2)C1.O=C(O)C(F)(F)F.O=C(O)C(F)(F)F` [SR-00000007518], for which the entries for the “Lipophilic Efficiency (logD)” value in series [1] (HEK Agonist Activity section) and in series [2] (based on logD) were 2.64 and 4.71, respectively. Besides, the “Lipophilic Efficiency (logP)” value in series [1] (HEK Agonist Activity section) is reported as 1.58; in series [2] (based on logP), 3.64. Further, the EC50 was > 14.1 µM in series [1] (setting [3]) and 0.12 µM in series [2] (setting [6]). Also, the “Averaged Max % Response (±St. Dev.)” value in series [1] (HEK Agonist Activity section) is 23.13 ± 2.30%; in series [2] it was 91.59 ± 7.88%. Besides, in series [2] (fitted dose-response curve), the “Hill Slope” value stood at 0.81. Besides, in series [2] (ligand efficiency), the “Efficiency Ligand” value was determined as 0.30.
For `N#Cc1ccc(OC(=O)COc2cccc3ccccc23)cc1` [SR-01000005203], in series [1] (HEK Agonist Activity section), the “Lipophilic Efficiency (logD)” value is given as 0.91, the “Lipophilic Efficiency (logP)” value was found to be 0.91 and the “Averaged Max % Response (±St. Dev.)” value is 16.23 ± 3.90%. In addition, in series [1] (setting [4]), the EC50 was > 13.9 µM. Also, in series [2], the “Efficiency Ligand” value turned out to be 0.38, the “Hill Slope” value was found to be 1.01, the “Lipophilic Efficiency (logD)” value is recorded as 2.24 and the “Lipophilic Efficiency (logP)” value stood at 2.24. The “Averaged Max % Response (±St. Dev.)” value in series [2] was 77.18 ± 14.00%. For the same compound, the EC50 in series [2] (HEK-GPR139 cells) is 0.651 µM.
Regarding `CCOC(=O)N1CCC2=C(CC(NC(=O)Cc3cccc4ccccc34)=C2C(C)=O)C1` [SR-01000011241], in series [1] (HEK Agonist Activity section), the “Lipophilic Efficiency (logD)” value was found to be 1.05, the “Lipophilic Efficiency (logP)” value is recorded as 1.05 and the “Averaged Max % Response (±St. Dev.)” value is reported as 1.28 ± 10.93%. For the same compound, in series [1] (setting [4]), the EC50 is > 14.2 µM. Moreover, in series [2], the “Efficiency Ligand” value stood at 0.26, the “Hill Slope” value came to 1.07, the “Lipophilic Efficiency (logD)” value amounted to 1.89 and the “Lipophilic Efficiency (logP)” value is on record as 1.89. Moreover, the “Averaged Max % Response (±St. Dev.)” value in series [2] is 63.10 ± 2.62%.
For `COc1cc(OC)cc(-c2nnc(NC(=O)Cc3cccc4ccccc34)o2)c1` [SR-01000012205], the “Lipophilic Efficiency (logD)” value in series [1] (HEK Agonist Activity) is listed as 1.43; in series [2] (based on logD), 4.06. The “Lipophilic Efficiency (logP)” value in series [1] (HEK Agonist Activity) worked out at 1.43; in series [2] (based on logP), 4.05. The figures for the “Averaged Max % Response (±St. Dev.)” value in series [1] (HEK Agonist Activity) and in series [2] were 1.53 ± 2.99% and 109.87 ± 14.69%, respectively. The EC50 in series [1] (HEK Agonist Activity, parental non-transfected HEK cells) was > 14.5 µM; in series [2] (setting [6]) it was 0.0344 µM. For the same compound, the “Hill Slope” value in series [2] (fitted dose-response curve) came out at 0.93. Moreover, in series [2] (ligand efficiency), the “Efficiency Ligand” value is recorded as 0.36.
Regarding `O=C(Cc1cccc2ccccc12)Nc1nnc(-c2cccs2)o1` [SR-01000012264], the “Lipophilic Efficiency (logD)” value in series [1] (HEK Agonist Activity section) is on record as 1.35; in series [2] (based on logD) it was 3.36. Further, the “Lipophilic Efficiency (logP)” value in series [1] (HEK Agonist Activity section) was 1.34; in series [2] (based on logP), 3.36. Moreover, the EC50 in series [1] (setting [3]) was > 14.3 µM; in series [2] (setting [6]), 0.138 µM. The “Averaged Max % Response (±St. Dev.)” value in series [1] (HEK Agonist Activity section) worked out at 3.88 ± 6.42%; in series [2], 85.12 ± 11.10%. The “Hill Slope” value in series [2] (fitted dose-response curve) came out at 0.80. Besides, the “Efficiency Ligand” value in series [2] (ligand efficiency) is 0.40.
As to `Cc1cc(Cl)ccc1OC(C)C(=O)NNC(=O)c1ccccc1` (stereo not shown) [SR-01000013313], the “Lipophilic Efficiency (logD)” value in series [1] (HEK Agonist Activity) is on record as 1.41; in series [2] (based on logD) it was 4.45. The figures for the “Lipophilic Efficiency (logP)” value in series [1] (HEK Agonist Activity) and in series [2] (based on logP) were 1.40 and 4.44, respectively. Also, the results for the “Averaged Max % Response (±St. Dev.)” value in series [1] (HEK Agonist Activity) and in series [2] were 2.95 ± 4.76% and 93.40 ± 11.14%, respectively. The EC50 was > 14.4 µM in series [1] (setting [5]) and 0.0133 µM in series [2] (setting [6]). Also, the “Hill Slope” value in series [2] (fitted dose-response curve) worked out at 0.63. Moreover, in series [2] (ligand efficiency), the “Efficiency Ligand” value is 0.48.
